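In this assay, cells in 96-well plates receive the compound at five concentrations for 48 hours. Endpoints are linearly interpolated between the surrounding concentrations. GI50 is the concentration that inhibits growth by half. TGI denotes the concentration required for complete inhibition of growth.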

One may read the GI50 as the concentration giving 50% growth inhibition. For orientation: TGI means the concentration giving total growth inhibition.

Test in all cases: DTP human tumour cell line panel, 48 h
The subject of experiment [1] is SF-295 CNS.
Experiment [2] deals with NCI/ADR-RES ovarian.
Experiment [3] relates to NCI-H226 lung.
For experiment [4], the system named is HS 578T breast.
For experiment [5], the system named is SN12C renal.
Experiment [6] has as its system SK-OV-3 ovarian.
The test system of experiment [7] is NCI-H522 lung.
Experiment [8] relates to UO-31 renal.
Experiment [9] has as its system SK-MEL-28 melanoma.
The test system of experiment [10] is SR leukemia.

With `O=C1Nc2ccc(CN3CCOC3=O)cc2/C1=C/c1cc(CN2CCOCC2)c[nH]1`, the GI50 in [1] is 2.16 µM; in experiment [2], 34.6 µM; in experiment [3], 28.1 µM; in experiment [4], > 69.8 µM; in experiment [5] it was 45.4 µM; in [6], 98.9 µM. In addition, the GI50 in experiment [7] was 36.1 µM; in experiment [8], 21.5 µM; in experiment [9] it was 58 µM; in experiment [10] it was 7.43 µM. Besides, the total growth inhibition concentration (TGI) in experiment [1], in experiment [2], in experiment [3], in [4], in experiment [5] and in [6] was > 100 µM each time. The TGI in [7] was > 100 µM; in experiment [8], > 94.7 µM; in [9], > 100 µM; in experiment [10] it was 73.9 µM.
`CNC(=O)/C(=C/c1ccc(OC)cc1)c1cc(OC)c(OC)c(OC)c1`: the concentration for total growth inhibition (TGI) in experiment [1] is 3.02 µM; in experiment [2], > 100 µM; in experiment [3], > 53.7 µM; in [4], 5.71 µM; in experiment [5] it was 98.1 µM; in experiment [6] it was 29 µM. Moreover, the total growth inhibition concentration (TGI) was 4.39 µM in experiment [7], > 86 µM in experiment [8], > 100 µM in experiment [9] and > 31.1 µM in [10].
With `CC(=O)N1N=C(c2ccc(Nc3nc(Nc4ccc(F)cc4)nc(Nc4ccc(Cl)cc4)n3)cc2)CC1c1ccc(N(C)C)cc1` (centres undefined), the GI50 in [1] is 9.73 µM; in experiment [2] it was 1.65 µM; in experiment [3], 4.91 µM; in experiment [4], 8.09 µM; in experiment [5] it was 6.1 µM; in experiment [6], 6.82 µM. For the same compound, the GI50 in experiment [7] was 3.79 µM; in [8], 3.11 µM; in [9] it was 11.7 µM; in [10], 2.1 µM. In addition, the total growth inhibition concentration (TGI) in [1] is 37.4 µM; in experiment [2] it was 15.7 µM; in [3], 28 µM; in [4], 97.9 µM; in experiment [5], 33.3 µM; in experiment [6], > 31.2 µM. Also, the TGI was > 58.3 µM in [7], 16.6 µM in [8], 40.1 µM in experiment [9] and 5.18 µM in experiment [10].
On to `N=C1N=C(N)S/C1=C\c1ccc2ncccc2c1`, for which the GI50 is > 25 µM in [1]; > 25 µM in experiment [2]; > 25 µM in experiment [3]; > 19.1 µM in experiment [4]; > 25 µM in experiment [5]; > 25 µM in [6]. Moreover, the GI50 in [7], in experiment [8], in [9] and in experiment [10] was > 25 µM throughout. The TGI in experiment [1], in [2], in experiment [3], in experiment [4], in experiment [5] and in experiment [6] was > 25 µM throughout. Besides, the TGI in experiment [7], in experiment [8], in experiment [9] and in experiment [10] was > 25 µM in each case.
For `COc1cc2oc(-c3cccc(C(=O)Nc4ccc(C)cc4)c3)cc(=O)c2c(OC)c1OC`, the GI50 is 1.63 µM in experiment [1]; 1.46 µM in experiment [2]; 6.65 µM in experiment [3]; 4.61 µM in experiment [4]; 1.91 µM in experiment [5]; 3.13 µM in [6]. The GI50 in [7] was 2.67 µM; in [8] it was 3.5 µM; in experiment [9], 1.67 µM; in [10], 2.53 µM. The total growth inhibition concentration (TGI) in [1] was 3.56 µM; in experiment [2] it was > 100 µM; in experiment [3] it was > 100 µM; in [4], > 100 µM; in experiment [5], > 100 µM; in [6], 68.4 µM. Further, the total growth inhibition concentration (TGI) was 9.31 µM in [7], > 100 µM in experiment [8], 4.11 µM in experiment [9] and 40.6 µM in [10].
`CC(C)C[C@H]1C(=O)N2CCC[C@H]2[C@]2(O)O[C@](NC(=O)[C@@H]3C=C4c5cccc6[nH]c(Br)c(c56)C[C@H]4N(C)C3)(C(C)C)C(=O)N12`: the total growth inhibition concentration (TGI) in experiment [1], in [2], in [3], in experiment [4], in experiment [5] and in experiment [6] was > 100 µM each time. In addition, the concentration for total growth inhibition (TGI) in [7], in [8], in experiment [9] and in experiment [10] was > 100 µM in each case.
For `CC(C)c1ccc(/C=N/N=C(N)N)cc1`, the GI50 is 8.13 µM in [1]; 6.33 µM in [2]; 12.2 µM in experiment [3]; 11.5 µM in experiment [4]; 6.35 µM in [5]; 3.24 µM in experiment [6]. For the same compound, the GI50 in experiment [7] is 3.22 µM; in [8] it was 10.3 µM; in [9] it was 8.41 µM; in experiment [10], 3.31 µM. Moreover, the concentration for total growth inhibition (TGI) turned out to be 22.4 µM in experiment [1]; 23.2 µM in [2]; 26.3 µM in experiment [3]; 36.5 µM in experiment [4]; 20.4 µM in experiment [5]; 13 µM in experiment [6]. For the same compound, the TGI in experiment [7] stood at 12.9 µM; in [8], 22.3 µM; in [9] it was 21 µM; in [10], 12.7 µM.
Take `Cc1cc(S(=O)(=O)Nc2nc3ccccc3[nH]2)c(SCc2ccccc2)cc1Cl`: the GI50 in experiment [1] was 21.3 µM; in experiment [2], > 100 µM; in experiment [3] it was 43.8 µM; in experiment [4] it was 78.1 µM; in [5], 29.6 µM; in experiment [6] it was 70.3 µM. In addition, the GI50 in experiment [7] was > 100 µM; in [8] it was > 100 µM; in [9], > 100 µM; in experiment [10], 26.1 µM. Besides, the concentration for total growth inhibition (TGI) in experiment [1], in experiment [2], in experiment [3], in experiment [4], in experiment [5] and in experiment [6] was > 100 µM each time. Moreover, the TGI in experiment [7], in experiment [8], in [9] and in [10] was > 100 µM each time.
In the case of `COc1ccc(C2CC(c3cccc(OC)c3)=NN2C(=O)c2cc(OC)c(OC)c(OC)c2)cc1` (centres undefined), the GI50 in experiment [1] is 0.654 µM; in experiment [2], 1.55 µM; in experiment [4], 1.21 µM; in experiment [5] it was 5.03 µM; in experiment [6], 3.66 µM; in experiment [7] it was 2.66 µM. Moreover, the GI50 in [8] was 1.59 µM; in experiment [9] it was 12.5 µM; in [10], 0.359 µM. Besides, the TGI in [1] is > 100 µM; in experiment [2], > 21.1 µM; in experiment [3], > 100 µM; in [4] it was 5.37 µM; in [5] it was > 100 µM; in [6], > 100 µM. The concentration for total growth inhibition (TGI) in [7] was > 22.1 µM; in experiment [8], > 100 µM; in experiment [9] it was > 100 µM; in experiment [10], > 100 µM.

Values taken from PubChem BioAssay (NCI).
